Experimental data taken from PubChem BioAssay (NCI).
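Following 48 hours of exposure in 96-well plates, responses at five concentrations were used to interpolate endpoints linearly. The concentration for full growth arrest is given as TGI.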

What was measured:
Assay in all cases: NCI anticancer screen, dose series, 48 h
[1] = tested on: SK-MEL-28 melanoma
[2] = tested on: UACC-62 melanoma
[3] = tested on: SF-268 CNS
[4] = tested on: MALME-3M melanoma
[5] = tested on: LOX IMVI melanoma
[6] = tested on: K-562 leukemia
[7] = tested on: MDA-MB-435
[8] = tested on: OVCAR-8 ovarian
[9] = tested on: SK-OV-3 ovarian
[10] = tested on: UACC-257 melanoma
[11] = tested on: SK-MEL-5 melanoma
[12] = tested on: MDA-MB-231 breast
[13] = tested on: NCI-H226 lung
[14] = tested on: EKVX NSCLC
[15] = tested on: HT29 colon
[16] = tested on: SR leukemia
[17] = tested on: SNB-19 CNS
[18] = tested on: RXF 393 renal
[19] = tested on: IGROV1 ovarian
[20] = tested on: NCI/ADR-RES ovarian
[21] = tested on: SF-295 CNS
[22] = tested on: PC-3 prostate
[23] = tested on: NCI-H460 lung
[24] = tested on: T-47D breast
[25] = tested on: M14 melanoma
[26] = tested on: SW-620 colon
[27] = tested on: UO-31 renal
[28] = tested on: HCC-2998 colon
[29] = tested on: ACHN renal
[30] = tested on: KM12 colon
[31] = tested on: HOP-62 NSCLC
[32] = tested on: MCF7 breast
[33] = tested on: SN12C renal
[34] = tested on: BT-549 breast
[35] = tested on: U251 CNS
[36] = tested on: HCT-15 colon
[37] = tested on: OVCAR-5 ovarian
[38] = tested on: COLO 205 colon
[39] = tested on: DU-145 prostate
[40] = tested on: TK-10 renal
[41] = tested on: MDA-N
[42] = tested on: A549 NSCLC
[43] = tested on: HS 578T breast
[44] = tested on: HCT-116 colon
[45] = tested on: OVCAR-4 ovarian
[46] = tested on: 786-0 renal
[47] = tested on: SNB-75 CNS
[48] = tested on: SF-539 CNS
[49] = tested on: CAKI-1 renal
[50] = tested on: HL-60(TB) leukemia
[51] = tested on: MOLT-4 leukemia
[52] = tested on: OVCAR-3 ovarian
[53] = tested on: NCI-H522 lung
[54] = tested on: SK-MEL-2 melanoma
[55] = tested on: NCI-H23 lung
[56] = tested on: CCRF-CEM leukemia
[57] = tested on: RPMI-8226 leukemia
[58] = tested on: HOP-92 NSCLC

COCOc1cc(OC)c(Br)cc1C/C(=N/O)C(=O)OC
TGI [1]: > 100 µM
TGI [2]: > 100 µM
TGI [3]: > 100 µM
TGI [4]: > 100 µM
TGI [5]: > 100 µM
TGI [6]: > 100 µM
TGI [7]: > 100 µM
TGI [8]: > 100 µM
TGI [9]: > 100 µM
TGI [10]: > 100 µM
TGI [11]: > 100 µM
TGI [12]: > 100 µM
TGI [13]: > 100 µM
TGI [14]: > 100 µM
TGI [15]: > 100 µM
TGI [16]: > 100 µM
TGI [17]: > 100 µM
TGI [18]: > 100 µM
TGI [19]: > 100 µM
TGI [20]: > 100 µM
TGI [21]: > 100 µM
TGI [22]: > 100 µM
TGI [23]: > 100 µM
TGI [24]: 70.3 µM
TGI [25]: > 100 µM
TGI [26]: > 100 µM
TGI [27]: > 100 µM
TGI [28]: > 100 µM
TGI [29]: > 100 µM
TGI [30]: > 100 µM
TGI [31]: > 100 µM
TGI [32]: > 100 µM
TGI [33]: > 100 µM
TGI [34]: > 100 µM
TGI [35]: > 100 µM
TGI [36]: > 100 µM
TGI [37]: > 100 µM
TGI [38]: > 100 µM
TGI [39]: > 100 µM
TGI [40]: > 100 µM
TGI [41]: > 100 µM
TGI [42]: > 100 µM
TGI [43]: 57.3 µM
TGI [44]: > 100 µM
TGI [45]: > 100 µM
TGI [46]: > 100 µM
TGI [47]: 59.7 µM
TGI [48]: > 100 µM
TGI [49]: > 100 µM
TGI [50]: > 100 µM
TGI [51]: > 100 µM
TGI [52]: > 100 µM
TGI [53]: > 100 µM
TGI [54]: > 100 µM
TGI [55]: > 100 µM
TGI [56]: > 100 µM

Cc1ccc(/C=N/Nc2cc(C)c3ccccc3n2)s1
TGI [57]: 29.1 µM
TGI [1]: > 100 µM
TGI [2]: > 100 µM
TGI [3]: > 100 µM
TGI [4]: 22.4 µM
TGI [5]: 78.9 µM
TGI [6]: 39.2 µM
TGI [7]: > 100 µM
TGI [8]: > 100 µM
TGI [9]: 43.2 µM
TGI [10]: 50.7 µM
TGI [11]: 75.2 µM
TGI [12]: 19.9 µM
TGI [13]: 52.7 µM
TGI [14]: 27 µM
TGI [15]: 18.7 µM
TGI [16]: > 100 µM
TGI [17]: > 100 µM
TGI [18]: 75.5 µM
TGI [19]: 24.9 µM
TGI [20]: 90.6 µM
TGI [21]: 32 µM
TGI [22]: 31.1 µM
TGI [24]: > 100 µM
TGI [25]: 42.8 µM
TGI [26]: > 100 µM
TGI [27]: > 100 µM
TGI [28]: 33.8 µM
TGI [29]: 45.4 µM
TGI [30]: 38.5 µM
TGI [31]: 30.8 µM
TGI [32]: 39.6 µM
TGI [33]: 41.1 µM
TGI [34]: 42 µM
TGI [35]: 43 µM
TGI [36]: 25.6 µM
TGI [37]: 37.4 µM
TGI [38]: > 100 µM
TGI [40]: > 100 µM
TGI [41]: 37.6 µM
TGI [42]: 40.6 µM
TGI [43]: > 100 µM
TGI [44]: > 100 µM
TGI [45]: > 100 µM
TGI [46]: > 100 µM
TGI [58]: 93.8 µM
TGI [47]: > 100 µM
TGI [48]: 51.5 µM
TGI [49]: 37 µM
TGI [50]: > 100 µM
TGI [51]: 45.1 µM
TGI [52]: 7.93 µM
TGI [54]: > 100 µM
TGI [55]: 96.3 µM
TGI [56]: > 100 µM
